Patent publication US20210137897A1, “TOPICAL mTOR INHIBITORS FOR CUTANEOUS PROLIFERATIVE AND VASCULAR CONDITIONS” (GEORGETOWN UNIVERSITY, priority 2019, published 2021)

Tests used:
[1] = tested on: Langerhans cell histiocytosis, multisystem disease; conditions: in combination with a single dose of methylprednisolone; cited from earlier work
[2] = tested on: capillary malformation-arteriovenous malformation (CM-AVM) syndrome; test: Case report: topical 1% rapamycin cream in CM-AVM syndrome; format: in vivo, human; conditions: topical 1% rapamycin cream twice a day to the face
From the text: A person presented with several well demarcated pink to slightly tan patches with perilesional halos/rims of pallor scattered on their body, including one on their face. Many of those birthmarks were present since birth or at least since a very young age. The patient's parent also had similar-appearing birthmarks. The patient was otherwise well. Genetic testing confirmed a pathogenic variant identified in RASA1 gene consistent with capillary malformation-arteriovenous malformation (CM-AVM) syndrome. Per the patient and their parent's interest in a topical treatment, off-label use of topical 1% rapamycin cream was used twice a day to the lesion on the face.

keloids = test: Case report: 1% topical rapamycin on keloidal, contracted burn scar; format: in vivo, human; conditions: 1% topical rapamycin one to two times a day on thigh scar
From the text: As an adjuvant treatment, they treated their worst keloidal, contracted scar on their thigh with 1% topical rapamycin one to two times a day.

[3] = tested on: confluent and reticulated papillomatosis (CARP); test: Case report: topical 1% rapamycin cream in confluent and reticulated papillomatosis; format: in vivo, human; conditions: 1% rapamycin cream twice a day for 3 months
From the text: FIG. 1A is a photographic image of the chest of a patient afflicted with confluent and reticulated papillomatosis (CARP) before starting 3 months' treatment with topically applied 1% rapamycin (sirolimus).
FIG. 1B is a photographic image of the chest of the patient in FIG. 1A following 3 months' treatment with topically applied 1% rapamycin (sirolimus).
A person was initially diagnosed with CARP in October 2015 when they presented with numerous hyperpigmented, slightly velvety macules with a fine overlying scale coalescing into reticulated and confluent patches on their chest, neck, and upper back. […] They then embarked upon a course of topical 1% rapamycin cream applied to affected areas twice a day for 3 months. […] Pre- and post treatment photographs are presented as FIGS. 1A and 1B, respectively.

[4] = tested on: venolymphatic malformation; test: Case report: topical 1% sirolimus cream in venolymphatic malformation; format: in vivo, human
From the text: A person presented with a birthmark on the left thigh, present since birth. […] Clinically, it appeared most consistent with a mixed venolymphatic malformation, possibly with a small capillary component to it. Over the last few years, it began scabbing and occasionally bleeding at the surface. The deeper areas sometimes caused a throbbing pain. A decision was made to start treatment with topical 1% sirolimus cream twice a day. After 1.5 to 2 months treatment, the birthmark started to improve. Before starting topical sirolimus, they had painful episodes (6/10 severity) 2-3× per week that lasted 15-20 minutes. […] Additionally, overall the lesion was much flatter since starting the topical sirolimus. Their quality of life improved now that they were is in much less pain.
Previous reports have shown effectiveness of oral sirolimus in the treatment of venolymphatic malformations; however, to the best of inventor's knowledge, topical treatment has never been reported. This patient's venolymphatic malformation improved both symptomatically and improved in appearance with topical 1% rapamycin treatment. […] Additionally, inventor expects that all superficial or cutaneous vascular malformations and cutaenous vascular conditions would respond to treatment with topical mTOR inhibitor.

[5] = cited from earlier work
[6] = Sirolimus blood levels during topical treatment of the non-LCH patient; format: in vivo, human; conditions: at 1 month; topical rapamycin (1%) ointment to left face
From the text: Topical rapamycin (1%) compounded in ointment was initiated to the left face with the right face serving as a control. Sirolimus blood levels were negative at 1 month.

COc1cc([C@@H]2c3cc4c(cc3[C@@H](O[C@@H]3O[C@@H]5CO[C@@H](C)O[C@H]5[C@H](O)[C@H]3O)[C@H]3COC(=O)[C@H]23)OCO4)cc(OC)c1O [etoposide]
disease response [1]: 65%
reactivation [1]: 55%
survival [1]: 83%
toxicity [1]: 58%

CO[C@H]1C[C@@H]2CC[C@@H](C)[C@@](O)(O2)C(=O)C(=O)N2CCCC[C@H]2C(=O)O[C@H]([C@H](C)C[C@@H]2CC[C@@H](O)[C@H](OC)C2)CC(=O)[C@H](C)/C=C(\C)[C@@H](O)[C@@H](OC)C(=O)[C@H](C)C[C@H](C)/C=C/C=C/C=C/1C [sirolimus, Sirolimus]
tolerability [2]: tolerated well without side effects
tolerability (keloids): tolerated the treatment well without any known side effects
local tolerability at the site of application [3]: denied having any itching, burning, or pain
duration of pain episode ([4]; after 1-2 months of topical 1% sirolimus, before treatment 15-20 minutes): about 10 minutes
treatment time until the birthmark started to improve ([4]; person, topical 1% sirolimus cream twice a day): 1.5 to 2 months
water solubility [5]: poorly water soluble
Sirolimus blood levels [6]: negative

CC[C@]1(O)C[C@@H]2CN(CCc3c([nH]c4ccccc34)[C@@](C(=O)OC)(c3cc4c(cc3OC)N(C)[C@H]3[C@@](O)(C(=O)OC)[C@H](OC(C)=O)[C@]5(CC)C=CCN6CC[C@]43[C@@H]65)C2)C1 [vinblastine]
disease response [1]: 58%
reactivation [1]: 61%
survival [1]: 76%
toxicity [1]: 47%
